Source: patent publication US20110046105A1, “Heterocycle-substituted imidazolidine-2,4-diones, process for preparation thereof, medicaments comprising them and use thereof” (SANOFI-AVENTIS, priority 2008, published 2011)

Key:
hCB1R [1] = target: T1, hCB1R (Homo sapiens, UniProt P21554); assay: Binding to the CB1 receptor ([3H]-SR141716A displacement); parameters: expressed in transfected cells; host or cells: CHO-K1; details: CHO-K1/cannabinoid CB1 protein; ligand [3H]-SR141716A 0.5 nM; Ki from IC50 by Cheng-Prusoff
T1 sequence (P21554 whole entry): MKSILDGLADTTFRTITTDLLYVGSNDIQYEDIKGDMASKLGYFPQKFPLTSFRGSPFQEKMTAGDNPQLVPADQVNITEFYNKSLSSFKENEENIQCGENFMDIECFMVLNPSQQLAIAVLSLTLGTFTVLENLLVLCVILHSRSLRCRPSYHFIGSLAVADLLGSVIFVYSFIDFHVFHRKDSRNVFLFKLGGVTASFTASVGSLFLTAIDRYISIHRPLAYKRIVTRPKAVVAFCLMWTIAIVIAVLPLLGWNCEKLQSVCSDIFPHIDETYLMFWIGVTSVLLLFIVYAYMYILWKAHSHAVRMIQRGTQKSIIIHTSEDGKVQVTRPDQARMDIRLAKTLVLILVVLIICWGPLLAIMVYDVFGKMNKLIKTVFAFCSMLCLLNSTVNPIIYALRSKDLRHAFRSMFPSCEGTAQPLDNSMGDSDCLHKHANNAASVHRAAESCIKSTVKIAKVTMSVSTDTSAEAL
Protocol: Test compounds: The compounds (3 μl, 10 mM, 100% DMSO), pipetted into 96-well PP microtiter plates, were diluted with 27 μl of 100% DMSO (dimethyl sulfoxide). Proceeding from this solution, further 3-fold dilution steps were undertaken by transferring 10 μl in each case to a new PP microtiter plate and adding a further 20 μl of 100% DMSO. In each case 6 μl of these solutions were transferred into new 96-well PP microtiter plates and made up with 144 μl of assay buffer. The end concentrations ranged from 10 μM to 0.005 μM.
Negative control: AM 251, dissolved in assay buffer with 1% DMSO, was added to the dilution series in the microtiter plates as a control. The end concentration was 1 μM.
Blank control: assay buffer with 1% DMSO was added to the dilution series of the microtiter plates as a blank control.
High control: ^3H binding without addition of the compound
Low control: ^3H binding in the presence of 1 μM AM 251
The values were calculated using the corrected raw data.
The values reported were obtained as average values of a double determination. The IC50 values were calculated from the measurements with the program Xlfit, formula 205. Ki values were obtained from the IC50 and Kd values utilizing the Cheng-Prusoff equation: […]
Literature: Cheng, Y.-C., and Prusoff, W. H. (1973) Biochem. Pharmacol 22, 3099-3108

hCB1R [2] = target: T1, hCB1R; assay: In vitro functional assay with recombinant cells (FLIPR), cannabinoid 1 receptor; format: cell-based; parameters: expressed in transfected cells; host or cells: HEK293; details: recombinant HEK293 cells expressing CB1 and G-protein Galpha16; intracellular Ca2+ change against reference agonist
Protocol: (§1) Function-testing assays were performed by means of the FLIPR technique (“Fluorometric Imaging Plate Reader”, Molecular Devices Corp.).
(§2) To this end, ligand-induced changes in the intracellular concentration of Ca^2+ in recombinant HEK293 cells, which expressed both a cannabinoid receptor (CB1 or CB2) and G-protein Galpha16, were determined. For the studies, cells were sown into 96-well microtiter plates (60 000 cells/well) and left to grow overnight. The medium was removed and the cells were incubated in buffer which contained the fluorescent dye Fluo-4. After this loading with dye, the cells were washed, test substance was added dissolved in buffer, the mixture was incubated for 20 minutes, a known cannabinoid receptor agonist as a reference agonist was added in buffer and, finally, the changes in the intracellular Ca^2+ concentration were measured in the FLIPR unit.
(§3) Results were presented as the percentage change relative to the control (0%: analogous experiment without test substance and without reference agonist, i.e. only with buffer; 100%: analogous experiment without test substance, but with reference agonist in excess), and used to calculate dose/action curves, and IC50 values were determined.
The values of the functional assay compared to the cannabinoid 1 receptor including illustrative selectivities compared to the cannabinoid 2 receptor can be taken from table 1 which follows.

hCB2R = target: T2, hCB2R (Homo sapiens, UniProt P34972); assay: In vitro functional assay with recombinant cells (FLIPR), cannabinoid 2 receptor; format: cell-based; details: recombinant HEK293 cells expressing CB2 and G-protein Galpha16; intracellular Ca2+ change against reference agonist
T2 construct: expressed in transfected cells; host or cells: HEK293
T2 sequence (P34972 whole entry): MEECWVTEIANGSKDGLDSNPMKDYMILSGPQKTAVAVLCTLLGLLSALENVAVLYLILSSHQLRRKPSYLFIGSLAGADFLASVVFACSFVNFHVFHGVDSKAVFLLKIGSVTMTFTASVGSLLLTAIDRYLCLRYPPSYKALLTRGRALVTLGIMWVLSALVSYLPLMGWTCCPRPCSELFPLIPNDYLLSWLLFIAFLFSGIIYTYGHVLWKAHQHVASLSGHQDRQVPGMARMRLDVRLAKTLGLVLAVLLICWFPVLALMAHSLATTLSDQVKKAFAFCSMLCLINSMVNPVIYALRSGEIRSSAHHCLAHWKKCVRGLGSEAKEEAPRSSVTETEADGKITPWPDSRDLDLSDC
Protocol: as §1, §2
as §3, with “determined. […]” for “determined.”

[3] = target: T3, cannabinoid CB1 receptor (CB1) (Mus musculus, UniProt P47746); assay: Antagonization of CB1-mediated hypothermia; format: in vivo; details: female NMRI mice; 1.25 mg/kg intraperitoneally; within 30 min
T3 construct: from tissue; host or cells: whole animal (female NMRI mice)
T3 sequence (P47746 whole entry): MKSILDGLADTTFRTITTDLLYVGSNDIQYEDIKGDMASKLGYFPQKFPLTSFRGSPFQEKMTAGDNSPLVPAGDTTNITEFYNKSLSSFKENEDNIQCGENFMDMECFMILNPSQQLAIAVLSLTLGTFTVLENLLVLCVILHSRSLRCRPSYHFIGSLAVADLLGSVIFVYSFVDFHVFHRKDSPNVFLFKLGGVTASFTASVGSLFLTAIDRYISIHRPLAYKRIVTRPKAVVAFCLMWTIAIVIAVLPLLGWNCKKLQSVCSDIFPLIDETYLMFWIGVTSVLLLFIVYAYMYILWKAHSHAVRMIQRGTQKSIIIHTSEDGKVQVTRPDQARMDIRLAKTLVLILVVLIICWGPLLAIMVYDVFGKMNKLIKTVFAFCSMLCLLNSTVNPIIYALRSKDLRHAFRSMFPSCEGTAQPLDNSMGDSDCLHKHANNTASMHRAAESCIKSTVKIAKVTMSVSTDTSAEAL
Protocol: The test is used to measure the potency of cannabinoid CB1 receptor (CB1) antagonists. What is measured is the extent to which the CB1 antagonists to be tested are capable of preventing or of antagonizing hypothermia induced by a CB1 agonist.
Female NMRI mice, 25-35 g in weight, are used. The mice are accustomed to the housing conditions for at least one week.
At time 0 min, the animals are treated orally, intravenously or intraperitoneally with the CB1 antagonist to be tested. 30 min later, the CB1 agonist CP55.940, 1.25 mg/kg, is administered to the mice intraperitoneally. This brings about a fall in the body temperature by 5-6° C. within 30 min. The body temperature is measured rectally for the first time 30 min before the test substance administration and then every 30 min after this administration, if appropriate immediately before a substance administration, over 4 hours.
The potency of the test substances is reported as the percentage decrease in the area under the temperature-time curve which is formed firstly by the average basal temperature, and secondly by the temperature-time curve, of the animals treated exclusively with the CB1 antagonist.

Row | SMILES | Ki (hCB1R [1]) [nM] | IC50 (hCB1R [2]) [nM] | IC50 (hCB2R) [nM] | fall in the body temperature [3]
1 | CC1(C)C(=O)N(c2ccc(C#N)c(C(F)(F)F)c2)C(=O)N1Cc1ccccc1Nc1ccc(CN2CCNCC2=O)cc1 [Example 1, 4-(4,4-dimethyl-2,5-dioxo-3-{2-[4-(2-oxopiperazin-1-ylmethyl)phenylamino]-benzyl}imidazolidin-1-yl)-2-trifluoromethylbenzonitrile] | 34 | – | – | –
2 | CC1(C)C(=O)N(c2ccc(F)c(C(F)(F)F)c2)C(=O)N1Cc1ccc(F)cc1Nc1ccc(N2CCNC2=O)cc1 [Example 16, 1-{4-fluoro-2-[4-(2-oxoimidazolidin-1-yl)phenylamino]benzyl}-3-(4-fluoro-3-trifluoromethylphenyl)-5,5-dimethylimidazolidine-2,4-dione] | – | 23 | – | –
3 | CC1(C)C(=O)N(c2ccc(F)c(C(F)(F)F)c2)C(=O)N1Cc1ccccc1Nc1ccc(-c2nnn[nH]2)cc1 [Example 2, 3-(4-fluoro-3-trifluoromethylphenyl)-5,5-dimethyl-1-{2-[4-(1H-tetrazol-5-yl)phenylamino]benzyl}imidazolidine-2,4-dione] | 108 | 205 | > 10000 | –
4 | CC1(C)C(=O)N(c2ccc(F)c(C(F)(F)F)c2)C(=O)N1Cc1ccc(F)cc1Nc1ccc(N2CCC(O)CC2)cc1 [Example 14, 1-{4-fluoro-2-[4-(4-hydroxypiperidin-1-yl)phenylamino]benzyl}-3-(4-fluoro-3-trifluoromethylphenyl)-5,5-dimethylimidazolidine-2,4-dione] | – | 9 | – | –
5 | CC1(C)C(=O)N(c2ccc(F)c(C(F)(F)F)c2)C(=O)N1Cc1ccc(F)cc1Nc1ccc(N2CCCC2=O)cc1 [Example 4, 1-{4-fluoro-2-[4-(2-oxopyrrolidin-1-yl)phenylamino]benzyl}-3-(4-fluoro-3-trifluoromethylphenyl)-5,5-dimethylimidazolidine-2,4-dione] | 103 | – | – | –
6 | COC(=O)C1CC(=O)N(c2ccc(Nc3cc(F)ccc3CN3C(=O)N(c4ccc(F)c(C(F)(F)F)c4)C(=O)C3(C)C)cc2)C1 (centres unmarked) [Example 6, methyl 1-(4-{5-fluoro-2-[3-(4-fluoro-3-trifluoromethylphenyl)-5,5-dimethyl-2,4-dioxoimidazolidin-1-ylmethyl]phenylamino}phenyl)-5-oxopyrrolidine-3-carboxylate] | 40 | – | – | –
7 | CC1(C)C(=O)N(c2ccc(F)c(C(F)(F)F)c2)C(=O)N1Cc1ccc(F)cc1Nc1ccc(C2NC(=O)NC2=O)cc1 (centres unmarked) [Example 15, 1-{2-[4-(2,5-dioxoimidazolidin-4-yl)phenylamino]-4-fluorobenzyl}-3-(4-fluoro-3-trifluoromethylphenyl)-5,5-dimethylimidazolidine-2,4-dione] | – | 60 | – | –
8 | CCOc1ccc(Nc2ccc(Nc3cc(F)ccc3CN3C(=O)N(c4ccc(F)c(C(F)(F)F)c4)C(=O)C3(C)C)cc2)nn1 [Example 7, 1-{2-[4-(6-ethoxypyridazin-3-ylamino)phenylamino]-4-fluorobenzyl}-3-(4-fluoro-3-trifluoromethylphenyl)-5,5-dimethyl-imidazolidine-2,4-dione] | 18 | 32 | – | –
9 | CC1(C)C(=O)N(c2ccc(F)c(C(F)(F)F)c2)C(=O)N1Cc1ccc(F)cc1Nc1ccc(-n2cnc3ccccc32)cc1 [Example 5, 1-[2-(4-benzimidazol-1-ylphenylamino)-4-fluorobenzyl]-3-(4-fluoro-3-trifluoromethylphenyl)-5,5-dimethylimidazolidine-2,4-dione] | 4 | 6 | – | –
10 | CC1(C)C(=O)N(c2ccc(F)c(C(F)(F)F)c2)C(=O)N1Cc1ccc(F)cc1Nc1ccc(OC2CCOCC2)cc1 [Example 18, 1-{4-fluoro-2-[4-(tetrahydropyran-4-yloxy)phenylamino]benzyl}-3-(4-fluoro-3-trifluoromethylphenyl)-5,5-dimethylimidazolidine-2,4-dione] | – | 93 | – | –
11 | CC1(C)C(=O)N(c2ccc(F)c(C(F)(F)F)c2)C(=O)N1Cc1ccc(F)cc1Nc1ccc(N2CCNCC2=O)cc1 [Example 13, 1-{4-fluoro-2-[4-(2-oxopiperazin-1-yl)phenylamino]benzyl}-3-(4-fluoro-3-trifluoromethylphenyl)-5,5-dimethylimidazolidine-2,4-dione] | – | 125 | – | –
12 | COc1ccc(Nc2ccc(Nc3cc(F)ccc3CN3C(=O)N(c4ccc(F)c(C(F)(F)F)c4)C(=O)C3(C)C)cc2)nn1 [Example 8, {4-fluoro-2-[4-(6-methoxypyridazin-3-ylamino)phenylamino]benzyl}-3-(4-fluoro-3-trifluoro-methylphenyl)-5,5-dimethylimidazolidine-2,4-dione] | 10 | 24 | – | –
13 | CCCCCCC(C)(C)c1ccc([C@@H]2C[C@H](O)CC[C@H]2CCCO)c(O)c1 [CP55.940] | – | – | – | 5-6 °C
14 | CC1(C)C(=O)N(c2ccc(F)c(C(F)(F)F)c2)C(=O)N1Cc1ccc(F)cc1Nc1ccc(Nc2ccc(Cl)nn2)cc1 [Example 10, 1-{2-[4-(6-chloropyridazin-3-ylamino)phenylamino]-4-fluorobenzyl}-3-(4-fluoro-3-trifluoromethylphenyl)-5,5-dimethyl-imidazolidine-2,4-dione] | 7 | 34 | – | –
